Laboratory results reported in patent US20230174484A1, “ANTAGONISTS OF GPR39 PROTEIN” (Oregon Health & Science University, priority 2020, published 2023).

Target: T1, human GPR39 receptor (Homo sapiens, UniProt O43194)
T1 construct: PC3 Cells, Expressing the Endogenous Human GPR39 Receptor; endogenous in cells; host or cells: PC3 (human prostate adenocarcinoma) cells
T1 sequence (O43194 1-453): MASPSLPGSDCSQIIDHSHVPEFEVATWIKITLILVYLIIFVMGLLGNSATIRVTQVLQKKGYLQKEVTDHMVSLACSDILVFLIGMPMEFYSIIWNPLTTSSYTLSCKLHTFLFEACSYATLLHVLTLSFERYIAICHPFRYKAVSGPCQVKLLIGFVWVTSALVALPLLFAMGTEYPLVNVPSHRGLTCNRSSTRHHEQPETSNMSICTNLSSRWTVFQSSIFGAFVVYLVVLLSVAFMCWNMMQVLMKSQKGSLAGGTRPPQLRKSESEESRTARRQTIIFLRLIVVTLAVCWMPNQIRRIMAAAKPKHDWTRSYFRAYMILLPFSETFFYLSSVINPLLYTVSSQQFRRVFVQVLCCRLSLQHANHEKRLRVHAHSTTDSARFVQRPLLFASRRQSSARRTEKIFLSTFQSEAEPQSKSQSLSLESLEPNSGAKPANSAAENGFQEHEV
Assay: Measurement of intracellular calcium response in PC3 cells (FLIPR), antagonism of the C3 agonist response
Type: cell-based
Details: functional pKi (modified Cheng-Prusoff), inhibition of the C3 (TC-G 1008) response at EC90, 30 μM ZnCl2, read-out: fpKi activity
Procedure, shortened: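 PC3 cells with endogenous human GPR39 were loaded with Calcium-6 and read by FLIPR, with compounds tested in buffer with 30 μM final ZnCl2 and 0.32% DMSO. Peak Ca2+ signal was scored as % inhibition of the EC90 C3 response, fitted by four-parameter logistic. Functional pKi was derived via the modified Cheng-Prusoff equation.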

First: O=C(Nc1ccc(C(=O)N2CCN(C3CCCC3)CC2)c(N2CCCCCC2)c1)C1CC1 [Example 53, N-[3-(azepan-1-yl)-4-(4-cyclopentylpiperazine-1-carbonyl)phenyl]cyclopropanecarboxamide]
Second: O=C(Nc1ccc(C(=O)N2CCCCC2)c(N2CCCCCC2)c1)C1CC1 [Example 35, N-(3-(azepan-1-yl)-4-(piperidine-1-carbonyl)phenyl)cyclopropanecarboxamide]
The Ki of the first is higher: 316 to 1000 nM for the first, 63.1 to 251 nM for the second.

First: C[C@@H]1C[C@H](C)CN(c2cc(NC(=O)C3CC3)ccc2C(=O)N2CCS(=O)(=O)CC2)C1 [Example 67, Syn N-[3-[-3,5-dimethylpiperidin-1-yl]-4-(1,1-dioxo-1,4-thiazinane-4-carbonyl)phenyl]Cyclopropanecarboxamide]
Second: O=C(Nc1ccc(C(=O)N2CCS(=O)(=O)CC2)c(N2CCC(C(F)(F)F)C2)c1)C1CC1 (single isomer, unassigned) [Example 183b, N-[4-(1,1-dioxo-1,4-thiazinane-4-carbonyl)-3-[3R or 3S-(trifluoromethyl)pyrrolidin-1-yl]phenyl]cyclopropanecarboxamide]
The Ki of the first is lower: ≤ 50.1 nM for the first, 63.1 to 251 nM for the second. The first binds more tightly here.

First: Cc1ccn(-c2cc(NC(=O)C3CC3)ccc2C(=O)N2CCN(C)CC2c2ccccc2)n1 (single isomer, unassigned) [Example 155a, (2R or 2S) N-[4-(4-methyl-2-phenylpiperazine-1-carbonyl)-3-(3-methylpyrazol-1-yl)phenyl] cyclopropanecarboxamide]
Second: CC1CC(C)CN(c2cc(NC(=O)C3CC3)ccc2C(=O)N2CCN(C)CC2c2ccccc2)C1 (single isomer, unassigned) [Example 68a, Syn 2R or 2S N-[3-[3,5-dimethylpiperidin-1-yl]-4-(4-methyl-2-phenylpiperazine-1-carbonyl)phenyl] cyclopropanecarboxamide]
The Ki of the first is higher: 316 to 1000 nM for the first, ≤ 50.1 nM for the second. The second binds more tightly here.

First: CC1CCN(c2cc(NC(=O)C3CC3)ccc2C(=O)N2CCC(C(F)(F)F)CC2)C1 (racemic) [Example 63c, N-[3-(3-methylpyrrolidin-1-yl)-4-[4-(trifluoromethyl)piperidine-1-carbonyl]phenyl]cyclopropanecarboxamide]
Second: O=C(Nc1ccc(C(=O)N2CCC(C(F)(F)F)CC2)c(N2CCCCCC2)c1)C1CC1 [Example 38, N-(3-(azepan-1-yl)-4-(4-(trifluoromethyl)piperidine-1-carbonyl)phenyl) cyclopropanecarboxamide]
The Ki of the first is lower: ≤ 50.1 nM for the first, 63.1 to 251 nM for the second. The first binds more tightly here.

First: O=C(Nc1ccc(C(=O)N2CCn3cccc3C2)c(N2CCCCCC2)c1)C1CC1 [Example 39, N-(3-(azepan-1-yl)-4-(1,2,3,4-tetrahydropyrrolo[1,2-a]pyrazine-2-carbonyl)phenyl) cyclopropane carboxamide]
Second: CCCN1CCN(C(=O)c2ccc(NC(=O)C3CC3)cc2N2CCCCC2)CC1 [Example 19, N-(3-(piperidin-1-yl)-4-(4-propylpiperazine-1-carbonyl)phenyl)cyclopropanecarboxamide]
The Ki of the first is lower: 63.1 to 251 nM for the first, 316 to 1000 nM for the second.

First: CN1CCN(C(=O)c2ccc(NC(=O)C3CC3)cc2N2CCCC2)C(c2cccc(Cl)c2)C1 (single isomer, unassigned) [Example 171b, (2R or 2S) N-[4-[2-(3-chlorophenyl)-4-methylpiperazine-1-carbonyl]-3-pyrrolidin-1-ylphenyl] cyclopropanecarboxamide]
Second: CN1CCN(C(=O)c2ccc(NC(=O)C3CC3)cc2N2CCCC2)C(c2cccc(F)c2)C1 (single isomer, unassigned) [Example 88a, N-[4-[2-(3-fluorophenyl)-4-methylpiperazine-1-carbonyl]-3-pyrrolidin-1-ylphenyl]cyclopropanecarboxamide]
The Ki of the first is lower: ≤ 50.1 nM for the first, 63.1 to 251 nM for the second.

Compared with `CN1CCN(C(=O)c2ccc(NC(=O)C3CC3)cc2N2CC3(CCOC3)C2)C(c2ccccc2)C1` (stereo not shown) [Example 205, N-[4-(4-methyl-2-phenylpiperazine-1-carbonyl)-3-(6-oxa-2-azaspiro[3.4]octan-2-yl)phenyl]cyclopropanecarboxamide], `CN1CCN(C(=O)c2ccc(NC(=O)C3CC3)cc2N2CCOCC2)C(c2ccccc2)C1` (stereo not shown) [Example 200, N-[4-(4-methyl-2-phenylpiperazine-1-carbonyl)-3-morpholin-4-ylphenyl]cyclopropanecarboxamide] is higher in Ki: 63.1 to 251 nM for the first, 1260 to 6310 nM for the second. The first binds more tightly here.

First: O=C(Nc1ccc(C(=O)N2CCS(=O)(=O)CC2)c(N2CCC(F)(F)CC2)c1)C1CC1 [Example 196, N-[3-(4,4-difluoropiperidin-1-yl)-4-(1,1-dioxo-1,4-thiazinane-4-carbonyl)phenyl]cyclopropanecarboxamide]
Second: O=C(Nc1ccc(C(=O)N2CCS(=O)(=O)CC2)c(N2CCCC(C(F)(F)F)C2)c1)C1CC1 (racemic) [Example 185c, N-[4-(1,1-dioxo-1,4-thiazinane-4-carbonyl)-3-[3-(trifluoromethyl)piperidin-1-yl]phenyl]cyclopropanecarboxamide]
The Ki of the first is higher: 1260 to 6310 nM for the first, 63.1 to 251 nM for the second.

Compared with `CN1CCN(C(=O)c2ccc(NC(=O)C3CC3)cc2N2CCCCC2)C(c2ccccc2)C1` (racemic) [Example 201c, N-[4-(4-methyl-2-phenylpiperazine-1-carbonyl)-3-piperidin-1-ylphenyl]cyclopropanecarboxamide], `CCCN1CCN(C(=O)c2ccc(NC(=O)C3CC3)cc2N2CCCCCC2)C(c2ccccc2)C1` (single isomer, unassigned) [Example 73a, N-[3-(azepan-1-yl)-4-(2-phenyl-4-propylpiperazine-1-carbonyl)phenyl]Cyclopropanecarboxamide] is lower in Ki: 63.1 to 251 nM for the first, ≤ 50.1 nM for the second. The second binds more tightly here.

First: O=C(Nc1ccc(C(=O)N2CCN(Cc3ncco3)CC2)c(N2CCCCCC2)c1)C1CC1 [Example 24, N-(3-(azepan-1-yl)-4-(4-(oxazol-2-ylmethyl)piperazine-1-carbonyl)phenyl) cyclopropanecarboxamide]
Second: COc1ccccc1CN1CCN(C(=O)c2ccc(NC(=O)C3CC3)cc2N2CCCCCC2)CC1 [Example 27, N-(3-(azepan-1-yl)-4-(4-(2-methoxybenzyl)piperazine-1-carbonyl)phenyl) cyclopropanecarboxamide]
The Ki of the first is lower: 63.1 to 251 nM for the first, 316 to 1000 nM for the second.

Compared with `CN1CCN(C(=O)c2ccc(NC(=O)C3CC3)cc2N2CCCC2)C(c2ccc(F)cc2)C1` (racemic) [Example 89, N-[4-[2-(4-fluorophenyl)-4-methylpiperazine-1-carbonyl]-3-pyrrolidin-1ylphenyl]cyclopropanecarboxamide], `CN1CCN(C(=O)c2ccc(NC(=O)C3CC3)cc2N2CCCC2)C(c2cccs2)C1` (racemic) [Example 86c, N-[4-(4-methyl-2-thiophen-2-ylpiperazine-1-carbonyl)-3-pyrrolidin-1-ylphenyl]cyclopropanecarboxamide] is lower in Ki: 316 to 1000 nM for the first, ≤ 50.1 nM for the second.

`O=C(NCc1ccccn1)c1ccc(NC(=O)C2CC2)cc1N1CCCCCC1` [Example 42, 2-(azepan-1-yl)-4-cyclopropaneamido-N-[(pyridin-2-yl)methyl]benzamide] and `O=C(NCc1ccccc1)c1ccc(NC(=O)C2CC2)cc1N1CCCCCC1` [Example 43, 2-(azepan-1-yl)-N-benzyl-4-cyclopropaneamidobenzamide] fall in the same range of Ki: 316 to 1000 nM for the first, 316 to 1000 nM for the second.

First: CN1CCN(C(=O)c2ccc(NC(=O)C3CC3)nc2N2CCC(F)(F)CC2)C(c2ccccc2)C1 (racemic) [Example 146, N-[6-(4,4-difluoropiperidin-1-yl)-5-(4-methyl-2-phenylpiperazine-1-carbonyl)pyridin-2-yl]cyclopropanecarboxamide]
Second: CN1CCN(C(=O)c2ccc(NC(=O)C3CC3)cc2N2CCC(C(F)(F)F)C2)C(c2ccccc2)C1 (single isomer, unassigned) [Example 199a, (2S, 3R) or (2R, 3S) or (2R, 3R) or (2S, 3S) N-[4-(4-methyl-2-phenylpiperazine-1-carbonyl)-3-[3-(trifluoromethyl)pyrrolidin-1-yl]phenyl]cyclopropanecarboxamide]
The Ki of the first is higher: 63.1 to 251 nM for the first, ≤ 50.1 nM for the second.

Compared with `CN1CCn2c(cnc2-c2ccc(NC(=O)C3CC3)cc2N2CCCCCC2)C1` [Example 102, N-[3-(azepan-1-yl)-4-{7-methyl-5H,6H,7H,8H-imidazo[1,5-a]pyrazin-3-yl}phenyl]cyclopropanecarboxamide], `CCCN1CCN(C(=O)c2ccc(-c3nnc(C4CC4)[nH]3)cc2N2CCCCCC2)CC1` [Example 118, [2-(azepan-1-yl)-4-(5-cyclopropyl-4H-1,2,4-triazol-3-yl)phenyl]-(4-propylpiperazin-1-yl)methanone] is higher in Ki: 63.1 to 251 nM for the first, 316 to 1000 nM for the second.

Compared with `Cc1nnc(-c2ccc(C(=O)N3CCN(C)CC3c3ccccc3)c(N3CCCC3)c2)o1` (racemic) [Example 123, [4-(5-methyl-1,3,4-oxadiazol-2-yl)-2-pyrrolidin-1-ylphenyl]-(4-methyl-2-phenylpiperazin-1-yl)methanone], `Cc1nnc(-c2ccc(C(=O)N3CCN(C)CC3c3ccccc3)c(N3CCCC3)c2)[nH]1` (single isomer, unassigned) [Example 150a, (2R or 2S) (4-methyl-2-phenylpiperazin-1-yl)-[4-(5-methyl-4H-1,2,4-triazol-3-yl)-2-pyrrolidin-1-ylphenyl]methanone] is lower in Ki: 1260 to 6310 nM for the first, 63.1 to 251 nM for the second.

`CCCN1CCN(C(=O)c2ccc(NC(=O)C3CC3)cc2-c2ccccc2)CC1` [Example 10, N-(6-(4-propylpiperazine-1-carbonyl)-[1,1′-biphenyl]-3-yl)cyclopropanecarboxamide] showed a Ki of 1260 to 6310 nM.
